Our source for the mass density values is the NIST ThermoML archive (doi:10.1016/j.fluid.2016.01.023).

SMILES strings stand for the structures. Numbers after ± are expanded uncertainties.

A short description of this data set: mn = molality of the nth substance listed, in mol/kg. The conditions noted are these: 303.15 K, 101 kPa, Liquid, Vibrating tube method.

A word on the mass density: it is the mass of a sample divided by its volume. Regarding `N[C@@H](CCC(=O)[O-])C(=O)O.[Na+]` [sodium (S)-2-amino-4-carboxybutanoate] + O, the mass density amounted to 996.19 ± 0.84 kg/m3 (m1 = 0.01); 999.15 ± 0.84 kg/m3 (m1 = 0.043); 1004.02 ± 0.84 kg/m3 (m1 = 0.1); 1030.44 ± 0.84 kg/m3 (m1 = 0.417); 1066.63 ± 0.85 kg/m3 (m1 = 0.896); 1104.02 ± 0.85 kg/m3 (m1 = 1.454).

Take `CC(=O)C(=O)[O-].[Na+]` [sodium pyruvate] + O: the mass density reads like this: (m1 = 0.01) 995.66 ± 0.84 kg/m3; (m1 = 0.053) 997.57 ± 0.84 kg/m3; (m1 = 0.101) 1000.51 ± 0.84 kg/m3; (m1 = 0.5) 1018.19 ± 0.84 kg/m3; (m1 = 1.002) 1041.67 ± 0.84 kg/m3; (m1 = 1.502) 1065.87 ± 0.84 kg/m3.

In the case of `O=C([O-])CCC(=O)C(=O)[O-].[Na+].[Na+]` [disodium 2-oxo-glutarate] + O, the mass density by setting is: (m1 = 0.01) 996.13 ± 0.84 kg/m3; (m1 = 0.101) 1007.45 ± 0.85 kg/m3; (m1 = 0.5) 1042.49 ± 0.85 kg/m3; (m1 = 1.001) 1093.14 ± 0.85 kg/m3; (m1 = 1.501) 1147.45 ± 0.86 kg/m3.
